Assay results from patent US10774080B2, “Pyrimidine compound as JAK kinase inhibitor” (THERAVANCE BIOPHARMA R&D IP, LLC, priority 2017, dated 2020).

Tests used:
[1] = target: T1, Tyk2 (Homo sapiens, UniProt P29597); test: Biochemical Tyk2 kinase assay (LanthaScreen); settings: read-out: Tyk 2 (pKi) (converted)
T1 construct: GST; purchased Life Technologies
Protocol: Assay 1: Biochemical JAK and Tyk2 Kinase Assays A panel of four LanthaScreen JAK biochemical assays (JAK1, 2, 3 and Tyk2) were carried in a common kinase reaction buffer (50 mM HEPES, pH 7.5, 0.01% Brij-35, 10 mM MgCl2, and 1 mM EGTA). Recombinant GST-tagged JAK enzymes and a GFP-tagged STAT1 peptide substrate were obtained from Life Technologies. Serially or discretely diluted compounds were pre-incubated with each of the four JAK enzymes and the substrate in white 384-well microplates (Corning) at ambient temperature for 1 h. ATP was subsequently added to initiate the kinase reactions in 10 μL total volume, with 1% DMSO. […] The plates were allowed to incubate at ambient temperature for 1 h before being read on the EnVision reader (Perkin Elmer). Emission ratio signals (520 nm/495 nm) were recorded and utilized to calculate the percent inhibition values based on DMSO and background controls. For dose-response analysis, percent inhibition data were plotted vs. compound concentrations, and IC50 values were determined from a 4-parameter robust fit model with the Prism software (GraphPad Software). Results were expressed as pIC50 (negative logarithm of IC50) and subsequently converted to pKi (negative logarithm of dissociation constant, Ki) using the Cheng-Prusoff equation.

[2] = test system: CCL2 gene expression; test: Assay 7: ex vivo JAK PD assay, freshly excised human skin, CCL2; settings: 0.5% ointment, about 40 hours continuous exposure, Th1-skewed stimulation (TNFα, IFNγ, IL-12), vs vehicle
Protocol: (§1) Assay 7: Ex Vivo JAK Pharmacodynamic (PD) Assay Using Human Freshly Excised Skin An ex vivo JAK pharmacodynamics (PD) assay was conducted using human isolated skin tissue. The PD assay used fresh human skin (dermatome of 750 μm thickness) that was mounted in static Franz cells with a surface area of ˜0.5 cm^2. The receiver chambers of the Franz cells were filled with warm (37° C.) cornification media and placed in an incubator at 37° C. The skin was topically dosed with 10 μL ([…]) of compound (I) or vehicle and was left undisturbed overnight (˜24 hours). The next day, with no re-application of the test compound or vehicle, the media was replaced with a Th1-skewed stimulation cocktail consisting of TNFα, IFNγ and IL-12. The skin was left undisturbed for an additional 16 hours, and then harvested and processed for RNA extraction and qPCR of biomarkers: CXCL10, CCL2. GAPDH was used as an internal standard. The compound (I) was formulated in an ointment formulation at 0.5% strength. A total of three skin donors (tested in quadruplicates/sample/treatment) were used. Treatment effect was calculated as the percent increase or decrease in stimulation compared to the vehicle group. [table]

[3] = Assay 7: epidermal and dermal deposition in freshly excised human skin; assay type: in vitro ADME; settings: 0.5% ointment, about 40 hours continuous exposure
Protocol: as §1

[4] = Assay 5: rat pharmacokinetics; assay type: in vivo, male Sprague Dawley rats; settings: male, Sprague Dawley
Protocol: Assay 5: Rat Pharmacokinetics Assay The objective of this study was to assess the pharmacokinetics of compound (I) in plasma following single oral (PO, n=3) or intravenous (IV, n=2) administration to male Sprague Dawley rats. Three male Sprague Dawley rats were administered a single IV dose of compound (I) (1.0 mg/kg in 5% DMSO+20 mM Citrate buffer pH4) via a jugular vein catheter or a single PO dose of 5 mg/kg via oral gavage (5.0 mg/kg in 1% HPMC with 0.1% Tween80). At 0.25, 0.5, 1, 2, 4, 6, and 24 hours after dose administration blood samples were drawn via jugular vein catheter into EDTA tubes and maintained chilled on ice prior to centrifugation (12,000 rpm, 4 min, 4° C.). Aliquots of plasma were transferred to cluster tubes and stored frozen (−80° C.) prior to bioanalysis. Plasma samples were vortexed prior to transferring a 50 μL aliquot of sample to a 96-well plate and extracted with 200 μL acetonitrile containing an internal standard. Following extraction, samples were centrifuged for 10 min at 3700 RPM (2809×g). The supernatant was transferred to a new 96-well plate and then diluted in 0.2% formic acid in water (3-fold dilution). For all samples, 10 μL was injected onto a Waters Xbridge (C18 30×2.1 mm) column with a flow rate of 0.80 mL/min. Mobile phase A consisted of 0.2% formic acid in water and mobile phase B 0.2% formic acid in acetonitrile. Plasma levels of compound (I) were determined by LC-MS-MS analysis. Standard PK parameters were determined using Phoenix WinNonlin, (Certara Inc.).

[5] = test system: TSLP-induced TARC release from PBMCs; test: Assay 4: TSLP-induced TARC assay in human PBMC; assay type: cell-based; settings: 10 ng/mL TSLP, 48 hours, read-out: pIC50 for inhibition of TSLP induced TARC (converted)
From the text: Assay 4: In Vitro TSLP-Induced TARC Assay in Human PBMC
The binding of TSLP to its receptor induces a conformational change that activates JAK1 and JAK2 to phosphorylate various transcription factors including STAT3 and STAT5. In skin-resident immune cells, this triggers a cascade of intracellular events that result in cell proliferation, anti-apoptosis, dendritic cell migration, and production of Th2 cytokines and chemokines. During the acute phase of atopic dermatitis, the skin is invaded by Th2 lymphocytes. In primary peripheral blood mononuclear cells (PBMCs), TSLP has a pro-inflammatory effect by activating myeloid dendritic cells to attract and stimulate T cells. This process is mediated by thymus and activation-regulated chemokine (TARC/CCL17). […]
In this assay, it was shown that TSLP stimulation induces TARC release from PBMCs, and that this response is attenuated in a dose-dependent manner upon treatment with compound (I). […] After 48 hours, the cell supernatants were collected, and TARC was measured using Human CCL17/TARC Quantikine ELISA Kit.
For dose-response analysis, percent inhibition data were plotted vs. compound concentrations, and IC50 values were determined from a 4-parameter robust fit model with the GraphPad Prism software. Results may also be expressed as the negative logarithm of the IC50 value, pIC50.

T1 sequence (P29597 whole entry): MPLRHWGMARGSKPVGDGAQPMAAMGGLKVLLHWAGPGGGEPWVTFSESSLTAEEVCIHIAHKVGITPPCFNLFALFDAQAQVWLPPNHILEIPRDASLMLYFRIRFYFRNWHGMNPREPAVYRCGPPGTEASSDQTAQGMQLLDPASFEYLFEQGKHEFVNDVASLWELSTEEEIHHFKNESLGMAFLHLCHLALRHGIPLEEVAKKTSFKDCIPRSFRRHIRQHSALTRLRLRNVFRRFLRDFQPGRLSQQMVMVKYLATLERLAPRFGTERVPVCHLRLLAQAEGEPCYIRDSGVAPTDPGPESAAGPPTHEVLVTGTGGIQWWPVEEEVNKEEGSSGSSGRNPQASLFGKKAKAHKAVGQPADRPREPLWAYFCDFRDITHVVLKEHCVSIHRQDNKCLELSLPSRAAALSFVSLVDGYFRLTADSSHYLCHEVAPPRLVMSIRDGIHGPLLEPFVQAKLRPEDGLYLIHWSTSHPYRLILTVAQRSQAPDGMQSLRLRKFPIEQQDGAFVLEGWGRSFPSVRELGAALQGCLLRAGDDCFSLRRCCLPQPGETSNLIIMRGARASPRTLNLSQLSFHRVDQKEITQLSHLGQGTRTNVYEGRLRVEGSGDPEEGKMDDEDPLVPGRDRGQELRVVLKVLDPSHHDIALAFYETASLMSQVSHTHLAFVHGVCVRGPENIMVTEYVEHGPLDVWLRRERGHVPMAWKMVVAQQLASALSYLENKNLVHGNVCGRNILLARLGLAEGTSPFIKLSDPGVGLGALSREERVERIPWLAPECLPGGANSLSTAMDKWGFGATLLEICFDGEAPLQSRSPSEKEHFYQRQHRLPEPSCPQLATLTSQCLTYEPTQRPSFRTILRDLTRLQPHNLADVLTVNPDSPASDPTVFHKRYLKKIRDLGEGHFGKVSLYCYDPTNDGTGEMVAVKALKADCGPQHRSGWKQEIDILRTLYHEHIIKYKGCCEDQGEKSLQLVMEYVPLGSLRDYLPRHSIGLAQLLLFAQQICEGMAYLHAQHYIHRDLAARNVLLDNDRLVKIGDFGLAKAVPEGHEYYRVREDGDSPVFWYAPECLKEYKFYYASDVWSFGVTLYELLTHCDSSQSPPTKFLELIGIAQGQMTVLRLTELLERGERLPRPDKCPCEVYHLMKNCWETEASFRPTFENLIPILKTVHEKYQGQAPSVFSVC

In the case of `CCS(=O)(=O)N1[C@@H]2CCC[C@H]1C[C@H](N(C)c1nc(CO)c(F)c(Nc3cc(C)[nH]n3)n1)C2` [Compound (I), (2-(((1R,3s,5S)-9-(ethylsulfonyl)-9-azabicyclo[3.3.1]nonan-3-yl)(methyl)amino)-5-fluoro-6-((5-methyl-1H-pyrazol-3-yl)amino)pyrimidin-4-yl)methanol], the Ki [1] is reported as 0.126 nM, the “PD-% Inhibition (mean ± SD) CCL2” value [2] is reported as 61.3% and the “PK-Tissue concentration (μM, mean ± SD) Dermis” value [3] is reported as 6.1 ± 5.3 µM. The “PK-Tissue concentration (μM, mean ± SD) Epidermis” value [3] was 116.5 ± 91.9 µM, the clearance ([4]; plasma, rat, IV (1 mg/kg)) was 59 mL/min/kg and the Vd ([4]; plasma, rat, IV (1 mg/kg), read-out: Vdss) was 1.1 L/kg. It also gave a bioavailability ([4]; plasma, rat, PO (5 mg/kg)) of 7.7%, an AUC(0-t) ([4]; rat plasma, IV (1 mg/kg)) of 291 ng·h/mL and a Cmax ([4]; rat plasma, IV (1 mg/kg)) of 907 ng/mL. It also gave a half-life ([4]; rat plasma, IV (1 mg/kg), read-out: T½ (converted)) of 1.34 h, an AUC(0-t) ([4]; rat plasma, PO (5 mg/kg)) of 112 ng·h/mL and a Cmax ([4]; rat plasma, PO (5 mg/kg)) of 77 ng/mL. It also gave an IC50 [5] of 15.8 nM.
